Source: article PMC11960431, “A novel function of short cationic peptide FP-CATH9 without antimicrobial activity reverses resistance to minocycline in common multidrug-resistant gram-negative bacteria” (Microbiology Spectrum, 2025)
Ends that are not written are not given here.

Legend:
[1] = system: Clinical K. pneumoniae 3 (minocycline resistance); assay: Disk diffusion plate assay, inhibition zone (peptide alone and antibiotic sensitization); conditions: for Inhibition zone (mm) Contains FP-CATH9 / Inhibition zone (mm) Normal saline control: K. pneumoniae strain 3, mean ± SD, repeated three times; for Inhibition zone (mm) Contains FP-CATH9: antibiotic disk + FP-CATH9 (20 µg peptide in 10 µL); for Inhibition zone (mm) Normal saline control: antibiotic disk + normal saline, without FP-CATH9
[2] = system: Multidrug-resistant K. pneumoniae; assay: Checkerboard assay, FP-CATH9 and minocycline; conditions: 18 h
[3] = system: Clinical A. baumannii 3 (minocycline resistance); assay: Disk diffusion plate assay, inhibition zone; assay type: cell-based, Acinetobacter baumannii; conditions: Multidrug-resistant A. baumannii strain 3; MH paper + 10 µL normal saline; Fig 3B
Protocol: (§1) The antimicrobial activity of FP-CATH9 was determined through broth microdilution and plate assays in an antibiotic disk diffusion test.
(§2) The MIC of FP-CATH9 was determined using broth microdilution as recommended by Clinical and Laboratory Standards Institute (CLSI). Sensitivity to other antibiotics was assessed using the VITEK 2 Compact System (bioMerieux, France). Antimicrobial activity was determined using the Clinical and Laboratory Standards Institute (CLSI) Standard Reference method([17]).
(§3) The concentration of the FP-CATH9 mother solution was 2 mg/mL. The control conditions included MH paper + normal saline (10 µL) , experimental conditions included MH paper + FP-CATH9 (10 µL). Total 10 µL was added to MH paper to detect the dose dependence of sensitization.

[4] = system: Multidrug-resistant K. pneumoniae strain 3; assay: Time-killing curve; assay type: cell-based, Klebsiella pneumoniae; conditions: K. pneumoniae strain 3, 10^6 CFU/mL, 37°C, each agent 16 µg/mL
Protocol: After 4 h of treatment with minocycline only (16 µg/mL), drug-resistant bacterial cultures were again observed to be growing rapidly.
Refer to the method of a reference ([19]). The above clinical K. pneumoniae strain 3 was taken in logarithmic stage (oscillatory culture at 37°C) and diluted with fresh MH liquid medium into 10^6 CFU/mL bacterial suspension. […] The bacterial solution added with the drug was placed in an incubator at 37°C for shock culture, and the 50 µL bacterial solution was diluted 1,000 times at 0, 2, 4, 6, 8, 10, and 12 h, respectively. Then, the 50 µL diluted bacteria solution was coated on MH solid medium, and the bacterial colonies were counted after overnight culture at 37°C. Saline was used as a negative control.

[5] = system: P. aeruginosa ATCC 27853; assay: Disk diffusion plate assay, inhibition zone; assay type: cell-based, Pseudomonas aeruginosa; conditions: MH paper + 10 µL normal saline, Fig 3A
Protocol: as §1, §2, §3

[6] = system: minocycline-resistant K. pneumoniae strain 3; assay: G. mellonella infection assay; assay type: in vivo, Galleria mellonella; conditions: G. mellonella larvae, n = 10, infected with K. pneumoniae strain 3; 16 µg/mL; 7 days
Protocol: The G. mellonella model of bacterial infection was used to evaluate the combined protective effect of FP-CATH9 and minocycline. In each G. mellonella group (n = 10), G. mellonella survival was recorded every 24 h after infection. […] After the infected group was injectioned with minocycline -resistant K. pneumoniae strain 3 , the larvae all died within 1 day.
Refer to the method of a reference ([22]). Monoclonal K. pneumoniae strain 3 was selected and cultivated in 5 mL LB broth using a constant temperature oscillator at 200 rpm/min and 37°C for 12 h. After 12 h, the culture was expanded and diluted at the ratio of 1:100. The logarithmic bacterial solution was taken, washed with normal saline, and then suspended in 1 mL system with a concentration of 1.5 × 10^8 CFU/mL. The experiment was divided into 5 groups: the minocycline-resistant K. pneumoniae strain 3 group (treated group), the group injected with FP-CATH9 (16 µg/mL) alone, the group with minocycline (16 µg/mL) alone, the group with FP-CATH9 (16 µg/mL) + minocycline (16 µg/mL), and the NS group (saline group). […]

[7] = system: K. pneumoniae ATCC 700603; assay type: cell-based, Klebsiella pneumoniae; conditions: peptide alone, repeated three times
[8] = system: Clinical K. pneumoniae 2 (minocycline mediated); assay type: cell-based, Klebsiella pneumoniae; conditions: peptide alone, repeated three times
[9] = system: bovine erythrocytes; assay: Hemolytic activity; assay type: cell-based; conditions: 5% bovine erythrocyte suspension, 128 µg/mL, 37°C, 1 h, absorbance 540 nm; 0.2% Triton X-100 positive control; mean ± SD
Protocol: Refer to the method of a reference ([21]). Determination of hemolytic activity. Fresh bovine blood cells (Guangzhou Hongquan Biotechnology Co., Ltd., No: HQ80074) were washed with normal saline three times and configured into 5% erythrocyte suspension. […] The supernatant was absorbed, and the absorption value was measured at a 540 nm wavelength. Normal saline was used as negative control, and 0.2% Triton X-100 was used as positive control. The percentage of hemolysis rate is calculated by the following formula: hemolysis rate % = A(sample) − A(negative control) / A(positive control) × 100%.

[10] = system: Clinical A. baumannii 1 (minocycline sensitive); assay: MIC, broth microdilution (CLSI); assay type: cell-based, Acinetobacter baumannii; conditions: peptide alone, repeated three times
[11] = system: A. baumannii ATCC 19606; assay: MIC, broth microdilution (CLSI); assay type: cell-based, Acinetobacter baumannii; conditions: peptide alone, repeated three times
[12] = system: E. coli ATCC BW25113; assay: MIC, broth microdilution (CLSI); assay type: cell-based, Escherichia coli; conditions: peptide alone, repeated three times
[13] = system: Clinical A. baumannii 2 (minocycline mediated); assay type: cell-based, Acinetobacter baumannii; conditions: peptide alone, repeated three times
[14] = system: S. aureus ATCC 29213; assay: MIC, broth microdilution (CLSI); assay type: cell-based; conditions: peptide alone, repeated three times
[15] = system: Clinical P. aeruginosa 1 (minocycline resistance); conditions: peptide alone, repeated three times
Protocol: as §1, §2

[16] = system: Clinical K. pneumoniae 3 (minocycline resistance); conditions: peptide alone, repeated three times
Protocol: as §1, §2

[17] = system: Clinical P. aeruginosa 2 (minocycline resistance); conditions: peptide alone, repeated three times
Protocol: as §1, §2

[18] = system: Clinical A. baumannii 3 (minocycline resistance); conditions: peptide alone, repeated three times
Protocol: as §1, §2

[19] = system: Clinical P. aeruginosa 3 (minocycline resistance); conditions: peptide alone, repeated three times
Protocol: as §1, §2

[20] = system: P. aeruginosa ATCC 27853; assay: MIC, broth microdilution (CLSI); assay type: cell-based, Pseudomonas aeruginosa; conditions: peptide alone, repeated three times
[21] = system: Clinical K. pneumoniae 1 (minocycline sensitive); assay: MIC, broth microdilution (CLSI); assay type: cell-based, Klebsiella pneumoniae; conditions: peptide alone, repeated three times

CO/N=C(\C(=O)N[C@@H]1C(=O)N2C(C(=O)O)=C(CSc3nc(=O)c(=O)[nH]n3C)CS[C@H]12)c1csc(N)n1 [CRO, ceftriaxone]
Inhibition zone (mm) Contains FP-CATH9 [1]: 6 mm
Inhibition zone (mm) Normal saline control [1]: 6 mm

NCC[C@H](O)C(=O)N[C@@H]1C[C@H](N)[C@@H](O[C@H]2O[C@H](CN)[C@@H](O)[C@H](O)[C@H]2O)[C@H](O)[C@H]1O[C@H]1O[C@H](CO)[C@@H](O)[C@H](N)[C@H]1O [AK, amikacin]
Inhibition zone (mm) Contains FP-CATH9 [1]: 6 mm
Inhibition zone (mm) Normal saline control [1]: 6 mm

C[C@@H](O)[C@H]1C(=O)N2C(C(=O)O)=C(S[C@@H]3CN[C@H](C(=O)N(C)C)C3)[C@H](C)[C@H]12 [MEM, meropenem]
Inhibition zone (mm) Contains FP-CATH9 [1]: 8.1 ± 0.08 mm
Inhibition zone (mm) Normal saline control [1]: 8.16 ± 0.12 mm

CNC(C)C1CCC(N)C(OC2C(N)CC(N)C(OC3OCC(C)(O)C(NC)C3O)C2O)O1 (centres unmarked) [GN, gentamicin]
Inhibition zone (mm) Contains FP-CATH9 [1]: 6 mm
Inhibition zone (mm) Normal saline control [1]: 6 mm

CN(C)c1ccc(O)c2c1C[C@H]1C[C@H]3[C@H](N(C)C)C(O)=C(C(N)=O)C(=O)[C@@]3(O)C(O)=C1C2=O [minocycline]
Inhibition zone, control ([1]; Multidrug-resistant K. pneumoniae strain 3, MH paper + 10 µL normal saline, Fig 3C): 6 mm
MIC ([2]; Klebsiella pneumoniae, read-out: MIC of minocycline alone): 128 µg/mL
MIC of minocycline combined with FP-CATH9 ([2]; multidrug-resistant K. pneumoniae, 5 × 10^5 CFU/mL, 37°C): 2 µg/mL
Inhibition zone, control [3]: 11 mm
effect on bacterial growth at 10 h (time-killing curve) [4]: no inhibitory effect
Inhibition zone, control [5]: 6 mm
protective effect [6]: little protective effect

CC(C)(O/N=C(\C(=O)N[C@@H]1C(=O)N2C(C(=O)[O-])=C(C[n+]3ccccc3)CS[C@H]12)c1csc(N)n1)C(=O)O [CAZ, ceftazidime]
Inhibition zone (mm) Contains FP-CATH9 [1]: 6 mm
Inhibition zone (mm) Normal saline control [1]: 6 mm

C[C@@H](O)[C@H]1C(=O)N2C(C(=O)O)=C(SCCN=CN)C[C@H]12 [IPM, imipenem]
Inhibition zone (mm) Contains FP-CATH9 [1]: 9.03 ± 0.05 mm
Inhibition zone (mm) Normal saline control [1]: 9.06 ± 0.04 mm

KRFKKFWKK [FP-CATH9]
FP-CATH9 MIC [7]: >512 µg/mL
FP-CATH9 MIC [8]: >512 µg/mL
hemolysis [9]: 3.97% ± 0.42%
FP-CATH9 MIC [10]: >512 µg/mL
FP-CATH9 MIC [11]: >512 µg/mL
FP-CATH9 MIC [12]: >512 µg/mL
FP-CATH9 MIC [13]: >512 µg/mL
FP-CATH9 MIC [14]: >512 µg/mL
FP-CATH9 MIC [15]: >512 µg/mL
FP-CATH9 MIC [16]: >512 µg/mL
FP-CATH9 MIC [17]: >512 µg/mL
FP-CATH9 MIC [18]: >512 µg/mL
FP-CATH9 MIC [19]: >512 µg/mL
FP-CATH9 MIC [20]: >512 µg/mL
FP-CATH9 MIC [21]: >512 µg/mL

Cc1cc(NS(=O)(=O)c2ccc(N)cc2)no1 [SXT, sulfamethoxazole]
Inhibition zone (mm) Contains FP-CATH9 [1]: 10.13 ± 0.12 mm
Inhibition zone (mm) Normal saline control [1]: 10.23 ± 0.17 mm

CC1(C)S[C@@H]2[C@H](NC(=O)[C@H](N)c3ccccc3)C(=O)N2[C@H]1C(=O)O [AMP, ampicillin]
Inhibition zone (mm) Contains FP-CATH9 [1]: 6 mm
Inhibition zone (mm) Normal saline control [1]: 6 mm
